Structures can show the parent of a compound that is named as a salt.
These compounds were tested against human PDE1B enzyme (Homo sapiens (Human), UniProt Q01064) (assay: IMAP TR-FRET PDE1B enzymatic assay). Settings: negative log of half-maximal molar inhibitory concentration; 200 nM FAM-cAMP; values given as bins.
Type: biochemical
Procedure, shortened: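 Full-length GST-tagged human PDE1B (250 pg/well) in IMAP BSA buffer with 10 U/ml calmodulin and 2.5 mM CaCl2; compound pre-incubated 5 min at room temperature, then 200 nM (final) FAM-cAMP for 30 min. IMAP binding reagent/Tb added, 1 h; TR-FRET 520/490 ratio read. IC50 from sigmoidal dose-response fit.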
For `Cc1oc2ncnc(NC3(C)CC3)c2c1C(=O)N1CCC(c2ncc(Cl)cn2)CC1` [Example 344, 5-[4-(5-Chloropyrimidin-2-yl)piperidine-1-carbonyl]-6-methyl-N-(1-methylcyclopropyl)furo[2,3-d]pyrimidin-4-amine], the “PDE1b (pIC50)” value was >8. In the case of `Cc1nc(C2CCN(C(=O)c3c(C)oc4ncnc(NC5(C)CC5)c34)C2)ccc1F` (stereo not drawn) [Example 799, 5-[3-(5-Fluoro-6-methylpyridin-2-yl)pyrrolidine-1-carbonyl]-6-methyl-N-(1-methylcyclopropyl)furo[2,3-d]pyrimidin-4-amine], the “PDE1b (pIC50)” value is reported as >8. In the case of `Cc1oc2ncnc(NC3(C)CC3)c2c1C(=O)N1CCC(c2ccn(C)n2)CC1` [Example 776, 6-Methyl-5-[4-(1-methyl-1H-pyrazol-3-yl)piperidine-1-carbonyl]-N-(1-methylcyclopropyl)furo[2,3-d]pyrimidin-4-amine], the “PDE1b (pIC50)” value is reported as >8. In the case of `COc1cccc(C2CCN(C(=O)c3c(C)oc4ncnc(NC5(C)CC5)c34)CC2)n1` [Example 422, 5-[4-(6-Methoxypyridin-2-yl)piperidine-1-carbonyl]-6-methyl-N-(1-methylcyclopropyl)furo[2,3-d]pyrimidin-4-amine], the “PDE1b (pIC50)” value is reported as >8. For `Cc1oc2ncnc(NC3(C)CC3)c2c1C(=O)N1CCC(F)(c2ccc(F)cc2)C1` (stereo not drawn) [Example 133, 5-[3-Fluoro-3-(4-fluorophenyl)pyrrolidine-1-carbonyl]-6-methyl-N-(1-methylcyclopropyl)furo[2,3-d]pyrimidin-4-amine], the “PDE1b (pIC50)” value was >8. With `COc1ccnc(C2CCN(C(=O)c3c(C)oc4ncnc(NC5(C)CC5)c34)CC2)n1` [Example 345, 5-[4-(4-Methoxypyrimidin-2-yl)piperidine-1-carbonyl]-6-methyl-N-(1-methylcyclopropyl)furo[2,3-d]pyrimidin-4-amine] the “PDE1b (pIC50)” value was >8.

Same assay, conditions: negative log of half-maximal molar inhibitory concentration; 200 nM FAM-cAMP; values given as bins; read-out: PDE1b (pIC50) (converted)
In the case of `COc1ccc(NC(=O)c2c(C)oc3ncnc(NC4(C)CC4)c23)c(C)c1` [Example 244, N-(4-Methoxy-2-methylphenyl)-6-methyl-4-[(1-methylcyclopropyl)amino]furo[2,3-d]pyrimidine-5-carboxamide], the IC50 is reported as 10 to 100 nM. With `Cc1oc2ncnc(NC3(C)CC3)c2c1C(=O)NCCCc1nc2cc(F)ccc2[nH]1` [Example 568, N-[3-(5-Fluoro-1H-1,3-benzodiazol-2-yl)propyl]-6-methyl-4-[(1-methylcyclopropyl)amino]furo[2,3-d]pyrimidine-5-carboxamide] the IC50 was 10 to 100 nM. Work on `COc1ncnc2c1CN(C(=O)c1c(C)oc3ncnc(NC4(C)CC4)c13)C2` [Example 622, 5-{4-Methoxy-5H,6H,7H-pyrrolo[3,4-d]pyrimidine-6-carbonyl}-6-methyl-N-(1-methylcyclopropyl)furo[2,3-d]pyrimidin-4-amine] yielded an IC50 of 100 to 1000 nM. With `Cc1nnc(CNC(=O)c2c(C)oc3ncnc(NC4(C)CC4)c23)o1` [Example 717, 6-Methyl-N-[(5-methyl-1,3,4-oxadiazol-2-yl)methyl]-4-[(1-methylcyclopropyl)amino]furo[2,3-d]pyrimidine-5-carboxamide] the IC50 was 10 to 100 nM. `Cc1oc2ncnc(NC3(C)CC3)c2c1C(=O)NC1(c2cnccn2)CC1` [Example 311, 6-Methyl-4-[(1-methylcyclopropyl)amino]-N-[1-(pyrazin-2-yl)cyclopropyl]furo[2,3-d]pyrimidine-5-carboxamide] gave an IC50 of 10 to 100 nM. For `Cc1oc2ncnc(NC3(C)CC3)c2c1C(=O)NCc1ccn(C)n1` [Example 99, 6-Methyl-N-[(1-methyl-1H-pyrazol-3-yl)methyl]-4-[(1-methylcyclopropyl)amino]furo[2,3-d]pyrimidine-5-carboxamide], the IC50 was 10 to 100 nM. Compound `COc1ncnc2c1CCN(C(=O)c1c(C)oc3ncnc(NC4(C)CC4)c13)CC2` [Example 629, 5-{4-Methoxy-5H,6H,7H,8H,9H-pyrimido[4,5-d]azepine-7-carbonyl}-6-methyl-N-(1-methylcyclopropyl)furo[2,3-d]pyrimidin-4-amine] has an IC50 of 100 to 1000 nM. For `Cc1oc2ncnc(NC3(C)CC3)c2c1C(=O)Nc1nccs1` [Example 143, 6-Methyl-4-[(1-methylcyclopropyl)amino]-N-(1,3-thiazol-2-yl)furo[2,3-d]pyrimidine-5-carboxamide], the IC50 was 10 to 100 nM. With `Cc1oc2ncnc(NC3(C)CC3)c2c1C(=O)N1CCC(C#N)(c2cccc(F)n2)CC1` [Example 444, 4-(6-Fluoropyridin-2-yl)-1-{6-methyl-4-[(1-methylcyclopropyl)amino]furo[2,3-d]pyrimidine-5-carbonyl}piperidine-4-carbonitrile] the IC50 was 10 to 100 nM. `Cc1oc2ncnc(NC3(C)CC3)c2c1C(=O)N1CCn2ncc(Br)c2C1` [Example 641, 5-{3-Bromo-4H,5H,6H,7H-pyrazolo[1,5-a]pyrazine-5-carbonyl}-6-methyl-N-(1-methylcyclopropyl)furo[2,3-d]pyrimidin-4-amine] was tested, and the IC50 was 100 to 1000 nM. In the case of `Cc1oc2ncnc(NC3(C)CC3)c2c1C(=O)NCc1cccnc1F` [Example 291, N-[(2-Fluoropyridin-3-yl)methyl]-6-methyl-4-[(1-methylcyclopropyl)amino]furo[2,3-d]pyrimidine-5-carboxamide], the IC50 is reported as 10 to 100 nM. `Cc1oc2ncnc(NC3(C)CC3)c2c1C(=O)N1CCN(c2ccc(F)cc2S(C)(=O)=O)CC1` [Example 521] gave an IC50 of 10 to 100 nM. In the case of `Cc1oc2ncnc(NC3(C)CC3)c2c1C(=O)N(C)Cc1cc(C2CC2)[nH]n1` [Example 265, N-[(5-Cyclopropyl-1H-pyrazol-3-yl)methyl]-N,6-dimethyl-4-[(1-methylcyclopropyl)amino]furo[2,3-d]pyrimidine-5-carboxamide], the IC50 is reported as 10 to 100 nM. Work on `Cc1oc2ncnc(NC3(C)CC3)c2c1C(=O)N1CCc2c(ncnc2OC(C)C)C1` [Example 465, 6-Methyl-N-(1-methylcyclopropyl)-5-[4-(propan-2-yloxy)-5H,6H,7H,8H-pyrido[3,4-d]pyrimidine-7-carbonyl]furo[2,3-d]pyrimidin-4-amine] yielded an IC50 of 10 to 100 nM. For `Cc1oc2ncnc(NC3(C)CC3)c2c1C(=O)Nc1cnn(C)c1` [Example 141, 6-Methyl-N-(1-methyl-1H-pyrazol-4-yl)-4-[(1-methylcyclopropyl)amino]furo[2,3-d]pyrimidine-5-carboxamide], the IC50 was 10 to 100 nM. With `Cc1oc2ncnc(NC3(C)CC3)c2c1C(=O)NC1(C2CC2)CC1` [Example 149, N-(1-Cyclopropylcyclopropyl)-6-methyl-4-[(1-methylcyclopropyl)amino]furo[2,3-d]pyrimidine-5-carboxamide] the IC50 was 10 to 100 nM. `Cc1oc2ncnc(NC3(C)CC3)c2c1C(=O)Nc1cnn(Cc2ccccn2)c1` [Example 472, 6-Methyl-4-[(1-methylcyclopropyl)amino]-N-[1-(pyridin-2-ylmethyl)-1H-pyrazol-4-yl]furo[2,3-d]pyrimidine-5-carboxamide] gave an IC50 of 10 to 100 nM. `Cc1cccc(NC(=O)c2c(C)oc3ncnc(NC4(C)CC4)c23)n1` [Example 426, 6-Methyl-4-[(1-methylcyclopropyl)amino]-N-(6-methylpyridin-2-yl)furo[2,3-d]pyrimidine-5-carboxamide] gave an IC50 of 10 to 100 nM. `Cc1oc2ncnc(NC3(C)CC3)c2c1C(=O)NC(C)c1ncco1` (stereo not drawn) [Example 749, 6-Methyl-4-[(1-methylcyclopropyl)amino]-N-[1-(1,3-oxazol-2-yl)ethyl]furo[2,3-d]pyrimidine-5-carboxamide] was tested, and the IC50 was 100 to 1000 nM. For `Cc1oc2ncnc(NC3(C)CC3)c2c1C(=O)NCc1cc(C(C)C)on1` [Example 324, 6-Methyl-4-[(1-methylcyclopropyl)amino]-N-{[5-(propan-2-yl)-1,2-oxazol-3-yl]methyl}furo[2,3-d]pyrimidine-5-carboxamide], the IC50 was 10 to 100 nM. `Cc1oc2ncnc(NC3(C)CC3)c2c1C(=O)N1CCc2c(ncnc2NCCF)C1` [Example 7, 5-{4-[(2-Fluoroethyl)amino]-5H,6H,7H,8H-pyrido[3,4-d]pyrimidine-7-carbonyl}-6-methyl-N-(1-methylcyclopropyl)furo[2,3-d]pyrimidin-4-amine trifluoroacetate] showed an IC50 of 10 to 100 nM. Compound `COc1ccc(CN(C)C(=O)c2c(C)oc3ncnc(NC4(C)CC4)c23)cc1O` [Example 604, N-[(3-Hydroxy-4-methoxyphenyl)methyl]-N,6-dimethyl-4-[(1-methylcyclopropyl)amino]furo[2,3-d]pyrimidine-5-carboxamide] has an IC50 of 10 to 100 nM. For `Cc1oc2ncnc(NC3(C)CC3)c2c1C(=O)NCc1ccc(F)cn1` [Example 49, N-[(5-Fluoropyridin-2-yl)methyl]-6-methyl-4-[(1-methylcyclopropyl)amino]furo[2,3-d]pyrimidine-5-carboxamide], the IC50 was 10 to 100 nM. `Cc1oc2ncnc(NC3(C)CC3)c2c1C(=O)N1C[C@@H]2C(c3ccccn3)[C@@H]2C1` (stereo partly drawn) [Example 30, 6-methyl-N-(1-methylcyclopropyl)-5-[(1R,5S,6S)-6-(pyridin-2-yl)-3-azabicyclo[3.1.0]hexane-3-carbonyl]furo[2,3-d]pyrimidin-4-amine] was tested, and the IC50 was 10 to 100 nM. `COc1nc(C)nc2c1CN(C(=O)c1c(C)oc3ncnc(NC4(C)CC4)c13)C2` [Example 709, 5-{4-Methoxy-2-methyl-5H,6H,7H-pyrrolo[3,4-d]pyrimidine-6-carbonyl}-6-methyl-N-(1-methylcyclopropyl)furo[2,3-d]pyrimidin-4-amine] showed an IC50 of 100 to 1000 nM. `Cc1oc2ncnc(NC3(C)CC3)c2c1C(=O)N1CCc2c(ncnc2NC2CCOCC2)C1` [Example 794, 6-Methyl-N-(1-methylcyclopropyl)-5-f{4-[(oxan-4-yl)amino]-5H,6H,7H,8H-pyrido[3,4-d]pyrimidine-7-carbonyl}furo[2,3-d]pyrimidin-4-amine] showed an IC50 of 10 to 100 nM. In the case of `C=CCN(Cc1ccc(OC)cc1)C(=O)c1c(C)oc2ncnc(NC3(C)CC3)c12` [Example 508, N-[(4-Methoxyphenyl)methyl]-6-methyl-4-[(1-methylcyclopropyl)amino]-N-(prop-2-en-1-yl)furo[2,3-d]pyrimidine-5-carboxamide], the IC50 is reported as 10 to 100 nM.
